Experimental data reported in ChEMBL document CHEMBL1275576, “In vitro activity of tomopenem (CS-023/RO4908463) against anaerobic bacteria” (Antimicrob Agents Chemother, 2009).

Legend:
[1] = tested on: Prevotella melaninogenica; assay: Antimicrobial activity against Prevotella melaninogenica by agar dilution method in presence of 5% laked sheep blood; type: functional
[2] = tested on: Peptoniphilus asaccharolyticus; assay: Antimicrobial activity against Peptoniphilus asaccharolyticus by agar dilution method in presence of 5% laked sheep blood; type: functional
Fusobacterium sp. = assay: Antimicrobial activity against Fusobacterium sp. by agar dilution method in presence of 5% laked sheep blood; type: functional
Fusobacterium nucleatum [3] = assay: Antimicrobial activity against Fusobacterium nucleatum ATCC 25586 by agar dilution method in presence of 5% laked sheep blood; type: functional
Bacteroides fragilis [4] = assay: Antimicrobial activity against Bacteroides fragilis GAI 10150 by agar dilution method in presence of 5% laked sheep blood; type: functional
[5] = tested on: Parabacteroides distasonis; assay: Antimicrobial activity against Parabacteroides distasonis by agar dilution method in presence of 5% laked sheep blood; type: functional
[6] = Antimicrobial activity against Parabacteroides distasonis ATCC 8503 by agar dilution method in presence of 5% laked sheep blood; type: functional
Bacteroides uniformis = assay: Antimicrobial activity against Bacteroides uniformis by agar dilution method in presence of 5% laked sheep blood; type: functional
Fusobacterium mortiferum = assay: Antimicrobial activity against Fusobacterium mortiferum by agar dilution method in presence of 5% laked sheep blood; type: functional
Clostridium perfringens = assay: Antimicrobial activity against Clostridium perfringens by agar dilution method in presence of 5% laked sheep blood; type: functional
Eubacterium limosum = assay: Antimicrobial activity against Eubacterium limosum by agar dilution method in presence of 5% laked sheep blood; type: functional
Phocaeicola vulgatus = assay: Antimicrobial activity against Bacteroides vulgatus by agar dilution method in presence of 5% laked sheep blood; type: functional
[7] = Antimicrobial activity against Desulfovibrio piger DSM 749 by agar dilution method in presence of 5% laked sheep blood; type: functional, Desulfovibrio piger ATCC 29098
Clostridioides difficile = assay: Antimicrobial activity against Clostridium difficile by agar dilution method in presence of 5% laked sheep blood; type: functional
Lactobacillus salivarius = assay: Antimicrobial activity against Lactobacillus salivarius subsp. salivarius JCM 1231 by agar dilution method in presence of 5% laked sheep blood; type: functional; details: Ligilactobacillus salivarius
Fusobacterium varium [8] = assay: Antimicrobial activity against Fusobacterium varium ATCC 8501 by agar dilution method in presence of 5% laked sheep blood; type: functional
Bacteroides ovatus = assay: Antimicrobial activity against Bacteroides ovatus ATCC 8483 by agar dilution method in presence of 5% laked sheep blood; type: functional
[9] = Antimicrobial activity against Finegoldia magna ATCC 29328 by agar dilution method in presence of 5% laked sheep blood; type: functional
[10] = tested on: Fusobacterium necrophorum; assay: Antimicrobial activity against Fusobacterium necrophorum by agar dilution method in presence of 5% laked sheep blood; type: functional
[11] = tested on: Bifidobacterium pseudolongum; assay: Antimicrobial activity against Bifidobacterium pseudolongum ATCC 25526 by agar dilution method in presence of 5% laked sheep blood; type: functional
[12] = tested on: Bacteroides eggerthii DSM 20697; assay: Antimicrobial activity against Bacteroides eggerthii ATCC 27754 by agar dilution method in presence of 5% laked sheep blood; type: functional
Finegoldia magna = assay: Antimicrobial activity against Finegoldia magna by agar dilution method in presence of 5% laked sheep blood; type: functional
Parvimonas micra = assay: Antimicrobial activity against Parvimonas micra by agar dilution method in presence of 5% laked sheep blood; type: functional
Fusobacterium nucleatum [13] = assay: Antimicrobial activity against Fusobacterium nucleatum by agar dilution method in presence of 5% laked sheep blood; type: functional
Atopobium parvulum = assay: Antimicrobial activity against Atopobium parvulum VPI 0546 by agar dilution method in presence of 5% laked sheep blood; type: functional; details: Lancefieldella parvula
[14] = tested on: Bacteroides thetaiotaomicron; assay: Antimicrobial activity against Bacteroides thetaiotaomicron by agar dilution method in presence of 5% laked sheep blood; type: functional
Bacteroides fragilis [15] = assay: Antimicrobial activity against carbapenemase-producing Bacteroides fragilis GAI 30079 by agar dilution method in presence of 5% laked sheep blood; type: functional
[16] = tested on: Limosilactobacillus fermentum; assay: Antimicrobial activity against Lactobacillus fermentum JCM 1173 by agar dilution method in presence of 5% laked sheep blood; type: functional
[17] = tested on: Peptostreptococcus anaerobius; assay: Antimicrobial activity against Peptostreptococcus anaerobius ATCC 27337 by agar dilution method in presence of 5% laked sheep blood; type: functional
[18] = tested on: Streptococcus constellatus; assay: Antimicrobial activity against Streptococcus constellatus ATCC 27923 by agar dilution method in presence of 5% laked sheep blood; type: functional
Lacticaseibacillus casei = assay: Antimicrobial activity against Lactobacillus casei subsp. casei JCM 1134 by agar dilution method in presence of 5% laked sheep blood; type: functional
[19] = tested on: Campylobacter ureolyticus; assay: Antimicrobial activity against Bacteroides ureolyticus NCTC 10941 by agar dilution method in presence of 5% laked sheep blood; type: functional
[20] = tested on: Peptostreptococcus anaerobius; assay: Antimicrobial activity against Peptostreptococcus anaerobius by agar dilution method in presence of 5% laked sheep blood; type: functional
Prevotella sp. = assay: Antimicrobial activity against Prevotella sp. by agar dilution method in presence of 5% laked sheep blood; type: functional
Eggerthella lenta = assay: Antimicrobial activity against Eggerthella lenta by agar dilution method in presence of 5% laked sheep blood; type: functional
Anaerococcus prevotii = assay: Antimicrobial activity against Anaerococcus prevotii ATCC 9321 by agar dilution method in presence of 5% laked sheep blood; type: functional
Capnocytophaga ochracea = assay: Antimicrobial activity against Capnocytophaga ochracea GAI 5586 by agar dilution method in presence of 5% laked sheep blood; type: functional
Bacteroides fragilis [21] = assay: Antimicrobial activity against Bacteroides fragilis by agar dilution method in presence of 5% laked sheep blood; type: functional
Prevotella denticola = assay: Antimicrobial activity against Prevotella denticola GAI 5490 by agar dilution method in presence of 5% laked sheep blood; type: functional
Prevotella bivia = assay: Antimicrobial activity against Prevotella bivia ATCC 29303 by agar dilution method in presence of 5% laked sheep blood; type: functional; details: DSM 20514
[22] = tested on: Lactiplantibacillus plantarum; assay: Antimicrobial activity against Lactobacillus plantarum JCM 1149 by agar dilution method in presence of 5% laked sheep blood; type: functional
Fusobacterium varium [23] = assay: Antimicrobial activity against Fusobacterium varium by agar dilution method in presence of 5% laked sheep blood; type: functional
Bacteroides stercoris = assay: Antimicrobial activity against Bacteroides stercoris by agar dilution method in presence of 5% laked sheep blood; type: functional
[24] = tested on: Porphyromonas asaccharolytica; assay: Antimicrobial activity against Porphyromonas asaccharolyticus by agar dilution method in presence of 5% laked sheep blood; type: functional

C[C@@H](O)[C@H]1C(=O)N2C(C(=O)O)=C(S[C@@H]3CN[C@H](C(=O)N(C)C)C3)[C@H](C)[C@H]12 [MEROPENEM]
MIC50 [1]: 0.125 µg/mL
MIC90 [1]: 0.25 µg/mL
MIC50 [2]: ≤ 0.015 µg/mL
MIC90 [2]: 0.125 µg/mL
MIC50 (Fusobacterium sp.): 0.03 µg/mL
MIC90 (Fusobacterium sp.): 0.125 µg/mL
MIC (Fusobacterium nucleatum [3]): 8 µg/mL
MIC (Bacteroides fragilis [4]): 2 µg/mL
MIC50 [5]: 0.25 µg/mL
MIC90 [5]: 4 µg/mL
MIC [6]: 0.125 µg/mL
MIC50 (Bacteroides uniformis): 0.25 µg/mL
MIC90 (Bacteroides uniformis): 4 µg/mL
MIC50 (Fusobacterium mortiferum): 0.03 µg/mL
MIC90 (Fusobacterium mortiferum): 0.125 µg/mL
MIC50 (Clostridium perfringens): ≤ 0.015 µg/mL
MIC90 (Clostridium perfringens): 0.03 µg/mL
MIC50 (Eubacterium limosum): 0.5 µg/mL
MIC90 (Eubacterium limosum): 1 µg/mL
MIC50 (Phocaeicola vulgatus): 0.25 µg/mL
MIC90 (Phocaeicola vulgatus): 4 µg/mL
MIC [7]: 0.03 µg/mL
MIC50 (Clostridioides difficile): 2 µg/mL
MIC90 (Clostridioides difficile): 4 µg/mL
MIC (Lactobacillus salivarius): 1 µg/mL
MIC (Fusobacterium varium [8]): 0.25 µg/mL
MIC (Bacteroides ovatus): 0.25 µg/mL
MIC [9]: 0.125 µg/mL
MIC50 [10]: 0.03 µg/mL
MIC90 [10]: 0.125 µg/mL
MIC [11]: 0.25 µg/mL
MIC [12]: 0.125 µg/mL
MIC50 (Finegoldia magna): 0.125 µg/mL
MIC90 (Finegoldia magna): 0.125 µg/mL
MIC50 (Parvimonas micra): 0.06 µg/mL
MIC90 (Parvimonas micra): 0.125 µg/mL
MIC50 (Fusobacterium nucleatum [13]): 0.03 µg/mL
MIC90 (Fusobacterium nucleatum [13]): 0.125 µg/mL
MIC (Atopobium parvulum): 0.5 µg/mL
MIC50 [14]: 0.5 µg/mL
MIC90 [14]: 2 µg/mL
MIC (Bacteroides fragilis [15]): > 128 µg/mL
MIC [16]: 0.25 µg/mL
MIC [17]: 0.5 µg/mL
MIC [18]: 0.05 µg/mL
MIC (Lacticaseibacillus casei): 2 µg/mL
MIC [19]: ≤ 0.015 µg/mL
MIC50 [20]: 0.25 µg/mL
MIC90 [20]: 2 µg/mL
MIC50 (Prevotella sp.): 0.125 µg/mL
MIC90 (Prevotella sp.): 0.25 µg/mL
MIC50 (Eggerthella lenta): 0.5 µg/mL
MIC90 (Eggerthella lenta): 1 µg/mL
MIC (Anaerococcus prevotii): 0.25 µg/mL
MIC (Capnocytophaga ochracea): 0.03 µg/mL
MIC50 (Bacteroides fragilis [21]): 0.25 µg/mL
MIC90 (Bacteroides fragilis [21]): 0.5 µg/mL
MIC (Prevotella denticola): 0.06 µg/mL
MIC (Prevotella bivia): 0.25 µg/mL
MIC [22]: 0.25 µg/mL
MIC50 (Fusobacterium varium [23]): 0.03 µg/mL
MIC90 (Fusobacterium varium [23]): 0.125 µg/mL
MIC50 (Bacteroides stercoris): 0.25 µg/mL
MIC90 (Bacteroides stercoris): 4 µg/mL
MIC50 [24]: ≤ 0.015 µg/mL
MIC90 [24]: 0.03 µg/mL

CCC[C@@H]1C[C@@H](C(=O)N[C@@H]([C@H]2O[C@H](SC)[C@H](O)[C@@H](O)[C@H]2O)[C@H](C)Cl)N(C)C1 [CLINDAMYCIN]
MIC (Bacteroides fragilis [4]): 0.5 µg/mL
MIC [6]: 0.06 µg/mL
MIC [7]: 0.06 µg/mL
MIC (Lactobacillus salivarius): 0.06 µg/mL
MIC (Fusobacterium varium [8]): 4 µg/mL
MIC (Bacteroides ovatus): 0.5 µg/mL
MIC [9]: 2 µg/mL
MIC [11]: ≤ 0.03 µg/mL
MIC [12]: ≤ 0.03 µg/mL
MIC (Atopobium parvulum): 1 µg/mL
MIC (Bacteroides fragilis [15]): > 128 µg/mL
MIC [16]: ≤ 0.03 µg/mL
MIC [17]: 0.25 µg/mL
MIC [18]: 0.25 µg/mL
MIC (Lacticaseibacillus casei): 2 µg/mL
MIC [19]: 0.25 µg/mL
MIC (Anaerococcus prevotii): 0.125 µg/mL
MIC (Capnocytophaga ochracea): ≤ 0.03 µg/mL
MIC (Prevotella denticola): ≤ 0.03 µg/mL
MIC (Prevotella bivia): ≤ 0.03 µg/mL
MIC [22]: 0.25 µg/mL
